Reference: article PMC10715191, “Exploration of the novel fluoroquinolones with high inhibitory effect against quinolone-resistant DNA gyrase of Salmonella Typhimurium” (Microbiology Spectrum, 2023)
Values after ≈ are worked out from the molar mass of the structure shown.

How the values were obtained:
[1] = target: T1, Asp87Asn mutant S. Typhimurium DNA gyrase (Salmonella typhimurium, UniProt P0A2I3+P37411, D87N); assay: Fluoroquinolone-inhibited DNA supercoiling assay, GyrA Asp87Asn DNA gyrase; assay type: biochemical; conditions: read-out: IC50s ± SD, Ap87Asn (converted)
T1 construct: made in house; host or cells: Escherichia coli BL21(DE3)
Text: (§1) Recombinant DNA gyrase was obtained as separate subunits, GyrA and GyrB. In total, plasmids encoding nine subunits including WT GyrA and GyrB as well as seven GyrA with amino acid substitutions (Ser83Phe, Ser83Ile, Ser83Tyr, Asp87Gly, Asp87Asn, Asp87Tyr, and […]) in the quinolone resistance determining region were constructed as described in our previous study ([38]). These plasmids were introduced into Escherichia coli BL21(DE3) (Merck KGaA, Darmstadt, Germany), and protein expression was induced in the bacterial cells. A transformed E. coli was inoculated into Luria-Bertani broth supplemented with ampicillin (50 mg/L) and incubated at 37°C until the optical density value reached 0.60. Expression of GyrA and GyrB was induced by adding 1 mM isopropyl beta-D-1-thiogalactopyranoside (Wako Pure Chemical Industries Ltd, Osaka, Japan) followed by incubation at 16°C for 40 h (for GyrA), or 18°C for 13 h (for GyrB). To release the expressed protein, E. coli cells were harvested by centrifugation, suspended in a native binding buffer containing complete mini EDTA-free (Roche Applied Science, Mannheim, Germany), and then sonicated at a 30% duty cycle with 10 cycles of 40 s on and 40 s off (Sonifier 250; Branson, Danbury, CT). The recombinant DNA gyrase subunits were purified by column chromatography using Ni-NTA agarose resin (Thermo Fisher Scientific, Inc., Waltham, MA) and dialyzed against DNA gyrase dilution buffer [50 mM Tris-HCl, pH 7.5; 100 mM KCl, 2 mM dithiothreitol (DTT), 1 mM EDTA]. […] The protein purity was assessed by sodium dodecyl sulfate-polyacrylamide gel electrophoresis (SDS-PAGE) (ATTO, Tokyo, Japan) as shown in Fig. 7.
(§2) The reaction mixture was incubated at 37°C for 60 min and then the reaction was halted by adding 8 µL of stop solution (5% SDS, 25% glycerol, and 0.25 mg/mL of bromophenol blue) ([45]). […] The amount of supercoiled DNA was quantified by its intensity using ImageJ, the digital image processing software (https://imagej.nih.gov/ij/download.html).

[2] = target: T2, Ser83Phe-Asp87Asn double-mutant S. Typhimurium DNA gyrase (Salmonella typhimurium, UniProt P0A2I3+P37411, D87N/S83F); assay: Fluoroquinolone-inhibited DNA supercoiling assay, GyrA Ser83Phe-Asp87Asn DNA gyrase; assay type: biochemical; conditions: for IC50 against double-mutant DNA gyrase relative to WT: ratio IC50 double mutant / WT; for IC50: supercoiling assay, GyrA double mutant Ser83Phe-Asp87Asn, read-out: IC50s ± SD, Ser83Phe-Asp87Asn (converted)
T2 construct: made in house; host or cells: Escherichia coli BL21(DE3)
T2 sequence (P37411 whole entry S83F/D87N, one chain of several): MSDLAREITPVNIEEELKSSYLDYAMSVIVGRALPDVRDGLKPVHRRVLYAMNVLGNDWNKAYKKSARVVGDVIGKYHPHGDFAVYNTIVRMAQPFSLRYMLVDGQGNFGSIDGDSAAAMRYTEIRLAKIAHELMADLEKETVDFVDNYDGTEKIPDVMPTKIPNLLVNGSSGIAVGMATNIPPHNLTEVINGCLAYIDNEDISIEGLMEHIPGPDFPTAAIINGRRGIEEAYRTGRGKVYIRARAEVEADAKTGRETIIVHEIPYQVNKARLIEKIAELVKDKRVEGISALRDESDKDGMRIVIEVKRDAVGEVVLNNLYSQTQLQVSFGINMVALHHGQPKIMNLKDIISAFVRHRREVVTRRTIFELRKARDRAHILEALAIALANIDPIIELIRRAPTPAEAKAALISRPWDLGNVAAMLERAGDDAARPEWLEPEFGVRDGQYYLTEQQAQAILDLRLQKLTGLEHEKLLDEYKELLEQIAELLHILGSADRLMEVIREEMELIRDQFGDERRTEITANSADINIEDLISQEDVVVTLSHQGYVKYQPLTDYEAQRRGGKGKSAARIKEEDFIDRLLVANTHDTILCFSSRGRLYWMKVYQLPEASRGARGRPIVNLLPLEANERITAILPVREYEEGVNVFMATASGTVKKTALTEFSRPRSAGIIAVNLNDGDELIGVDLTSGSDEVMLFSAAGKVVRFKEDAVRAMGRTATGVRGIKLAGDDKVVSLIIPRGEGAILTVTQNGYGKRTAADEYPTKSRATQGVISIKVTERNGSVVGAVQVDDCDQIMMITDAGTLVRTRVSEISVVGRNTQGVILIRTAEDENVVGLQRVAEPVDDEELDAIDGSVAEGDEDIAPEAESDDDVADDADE
Text: Recombinant DNA gyrase was obtained as separate subunits, GyrA and GyrB. In total, plasmids encoding nine subunits including WT GyrA and GyrB as well as seven GyrA with amino acid substitutions (Ser83Phe, Ser83Ile, Ser83Tyr, Asp87Gly, Asp87Asn, Asp87Tyr, and […]) in the quinolone resistance determining region were constructed as described in our previous study ([38]). These plasmids were introduced into Escherichia coli BL21(DE3) (Merck KGaA, Darmstadt, Germany), and protein expression was induced in the bacterial cells. A transformed E. coli was inoculated into Luria-Bertani broth supplemented with ampicillin (50 mg/L) and incubated at 37°C until the optical density value reached 0.60. Expression of GyrA and GyrB was induced by adding 1 mM isopropyl beta-D-1-thiogalactopyranoside (Wako Pure Chemical Industries Ltd, Osaka, Japan) followed by incubation at 16°C for 40 h (for GyrA), or 18°C for 13 h (for GyrB). To release the expressed protein, E. coli cells were harvested by centrifugation, suspended in a native binding buffer containing complete mini EDTA-free (Roche Applied Science, Mannheim, Germany), and then sonicated at a 30% duty cycle with 10 cycles of 40 s on and 40 s off (Sonifier 250; Branson, Danbury, CT). The recombinant DNA gyrase subunits were purified by column chromatography using Ni-NTA agarose resin (Thermo Fisher Scientific, Inc., Waltham, MA) and dialyzed against DNA gyrase dilution buffer [50 mM Tris-HCl, pH 7.5; 100 mM KCl, 2 mM dithiothreitol (DTT), 1 mM EDTA]. The obtained protein was mixed with glycerol to prevent denaturation and stored in small aliquots at −80°C for future use. The protein purity was assessed by sodium dodecyl sulfate-polyacrylamide gel electrophoresis (SDS-PAGE) (ATTO, Tokyo, Japan) as shown in Fig. 7.
The reaction mixture was incubated at 37°C for 60 min and then the reaction was halted by adding 8 µL of stop solution (5% SDS, 25% glycerol, and 0.25 mg/mL of bromophenol blue) ([45]). Next, 10 µL of each reaction mixture was subjected to gel electrophoresis for 80 min at 50 mA in 1.2% agarose gel in 1×Tris-acetate-EDTA (TAE) buffer. Subsequently, the gel was stained with 0.5 µg/mL of ethidium bromide for 30 min. The presence of supercoiled DNA can be easily distinguished as a separated band under the UV light. The amount of supercoiled DNA was quantified by its intensity using ImageJ, the digital image processing software (https://imagej.nih.gov/ij/download.html).

[3] = target: T3, Ser83Ile mutant S. Typhimurium DNA gyrase (Salmonella typhimurium, UniProt P0A2I3+P37411, S83I); assay: Fluoroquinolone-inhibited DNA supercoiling assay, GyrA Ser83Ile DNA gyrase; assay type: biochemical; conditions: read-out: IC50s ± SD, Ser83Ile (converted)
T3 construct: made in house; host or cells: Escherichia coli BL21(DE3)
T3 sequence (P37411 whole entry S83I, one chain of several): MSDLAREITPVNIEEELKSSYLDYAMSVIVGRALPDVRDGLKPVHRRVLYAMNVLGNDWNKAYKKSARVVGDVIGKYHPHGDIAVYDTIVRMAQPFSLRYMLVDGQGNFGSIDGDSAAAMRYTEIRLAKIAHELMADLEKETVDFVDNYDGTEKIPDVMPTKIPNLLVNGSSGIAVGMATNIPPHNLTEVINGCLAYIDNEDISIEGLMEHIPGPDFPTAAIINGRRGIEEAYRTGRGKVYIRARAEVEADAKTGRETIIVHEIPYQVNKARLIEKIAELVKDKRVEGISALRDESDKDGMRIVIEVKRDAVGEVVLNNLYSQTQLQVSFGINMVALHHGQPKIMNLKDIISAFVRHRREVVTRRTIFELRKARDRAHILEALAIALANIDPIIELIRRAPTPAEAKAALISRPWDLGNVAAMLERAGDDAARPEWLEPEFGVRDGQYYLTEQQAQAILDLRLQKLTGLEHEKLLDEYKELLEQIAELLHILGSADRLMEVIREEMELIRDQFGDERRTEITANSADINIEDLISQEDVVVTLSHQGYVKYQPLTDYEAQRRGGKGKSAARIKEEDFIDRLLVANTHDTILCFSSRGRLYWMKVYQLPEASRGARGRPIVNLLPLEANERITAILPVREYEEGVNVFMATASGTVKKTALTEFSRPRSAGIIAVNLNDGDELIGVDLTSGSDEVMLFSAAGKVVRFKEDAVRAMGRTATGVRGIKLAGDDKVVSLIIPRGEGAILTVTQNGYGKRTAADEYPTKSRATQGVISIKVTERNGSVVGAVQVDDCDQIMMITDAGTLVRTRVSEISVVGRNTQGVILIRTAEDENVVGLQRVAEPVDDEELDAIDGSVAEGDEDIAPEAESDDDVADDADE
Text: as §1, §2

[4] = target: T4, WT S. Typhimurium DNA gyrase (Salmonella typhimurium, UniProt P0A2I3+P37411); assay: Fluoroquinolone-inhibited DNA supercoiling assay, WT DNA gyrase; assay type: biochemical; conditions: read-out: IC50s ± SD, WT (converted)
T4 construct: made in house; host or cells: Escherichia coli BL21(DE3)
Text: as §1, §2

[5] = target: T5, Ser83Tyr mutant S. Typhimurium DNA gyrase (Salmonella typhimurium, UniProt P0A2I3+P37411, S83Y); assay: Fluoroquinolone-inhibited DNA supercoiling assay, GyrA Ser83Tyr DNA gyrase; assay type: biochemical; conditions: read-out: IC50s ± SD, Ser83Tyr (converted)
T5 construct: made in house; host or cells: Escherichia coli BL21(DE3)
T5 sequence (P37411 whole entry S83Y, one chain of several): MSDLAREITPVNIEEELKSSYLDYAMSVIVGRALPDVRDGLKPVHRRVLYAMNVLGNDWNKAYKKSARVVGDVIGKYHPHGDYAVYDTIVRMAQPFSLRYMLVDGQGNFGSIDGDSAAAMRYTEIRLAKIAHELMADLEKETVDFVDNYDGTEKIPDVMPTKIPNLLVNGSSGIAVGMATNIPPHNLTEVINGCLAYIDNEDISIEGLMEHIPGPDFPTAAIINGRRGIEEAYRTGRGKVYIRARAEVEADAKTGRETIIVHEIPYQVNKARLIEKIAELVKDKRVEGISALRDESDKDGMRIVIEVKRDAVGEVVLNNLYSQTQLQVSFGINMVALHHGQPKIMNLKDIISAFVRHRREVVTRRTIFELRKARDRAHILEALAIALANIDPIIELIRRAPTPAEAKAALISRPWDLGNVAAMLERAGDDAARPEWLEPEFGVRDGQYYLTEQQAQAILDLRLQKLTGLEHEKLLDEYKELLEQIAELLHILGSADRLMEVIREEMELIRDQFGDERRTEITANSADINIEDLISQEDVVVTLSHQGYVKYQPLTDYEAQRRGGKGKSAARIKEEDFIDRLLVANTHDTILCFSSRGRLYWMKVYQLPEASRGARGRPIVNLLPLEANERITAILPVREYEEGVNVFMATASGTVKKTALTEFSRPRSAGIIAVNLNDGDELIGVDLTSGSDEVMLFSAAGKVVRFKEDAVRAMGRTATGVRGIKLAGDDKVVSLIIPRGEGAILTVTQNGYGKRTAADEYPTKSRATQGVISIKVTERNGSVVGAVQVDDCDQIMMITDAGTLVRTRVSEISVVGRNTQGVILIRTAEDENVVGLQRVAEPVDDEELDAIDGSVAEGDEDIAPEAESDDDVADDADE
Text: as §1, §2

[6] = target: T6, GryA-Ser83Ile S. Typhimurium DNA gyrase (Salmonella typhimurium, UniProt P0A2I3+P37411, S83I); assay: Fluoroquinolone-mediated DNA cleavage assay, GyrA Ser83Ile DNA gyrase; assay type: biochemical
T6 construct: made in house; host or cells: Escherichia coli BL21(DE3)
Text: as §1, with “CT).” for “CT). The recombinant DNA gyrase subunits were purified by column chromatography using Ni-NTA agarose resin (Thermo Fisher Scientific, Inc., Waltham, MA) and dialyzed against DNA gyrase dilution buffer [50 mM Tris-HCl, pH 7.5; 100 mM KCl, 2 mM dithiothreitol (DTT), 1 mM EDTA].”, “7. […]” for “7.”

[7] = target: T7, Ser83Phe mutant S. Typhimurium DNA gyrase (Salmonella typhimurium, UniProt P0A2I3+P37411, S83F); assay: Fluoroquinolone-inhibited DNA supercoiling assay, GyrA Ser83Phe DNA gyrase; assay type: biochemical; conditions: read-out: IC50s ± SD, Ser83Phe (converted)
T7 construct: made in house; host or cells: Escherichia coli BL21(DE3)
T7 sequence (P37411 whole entry S83F, one chain of several): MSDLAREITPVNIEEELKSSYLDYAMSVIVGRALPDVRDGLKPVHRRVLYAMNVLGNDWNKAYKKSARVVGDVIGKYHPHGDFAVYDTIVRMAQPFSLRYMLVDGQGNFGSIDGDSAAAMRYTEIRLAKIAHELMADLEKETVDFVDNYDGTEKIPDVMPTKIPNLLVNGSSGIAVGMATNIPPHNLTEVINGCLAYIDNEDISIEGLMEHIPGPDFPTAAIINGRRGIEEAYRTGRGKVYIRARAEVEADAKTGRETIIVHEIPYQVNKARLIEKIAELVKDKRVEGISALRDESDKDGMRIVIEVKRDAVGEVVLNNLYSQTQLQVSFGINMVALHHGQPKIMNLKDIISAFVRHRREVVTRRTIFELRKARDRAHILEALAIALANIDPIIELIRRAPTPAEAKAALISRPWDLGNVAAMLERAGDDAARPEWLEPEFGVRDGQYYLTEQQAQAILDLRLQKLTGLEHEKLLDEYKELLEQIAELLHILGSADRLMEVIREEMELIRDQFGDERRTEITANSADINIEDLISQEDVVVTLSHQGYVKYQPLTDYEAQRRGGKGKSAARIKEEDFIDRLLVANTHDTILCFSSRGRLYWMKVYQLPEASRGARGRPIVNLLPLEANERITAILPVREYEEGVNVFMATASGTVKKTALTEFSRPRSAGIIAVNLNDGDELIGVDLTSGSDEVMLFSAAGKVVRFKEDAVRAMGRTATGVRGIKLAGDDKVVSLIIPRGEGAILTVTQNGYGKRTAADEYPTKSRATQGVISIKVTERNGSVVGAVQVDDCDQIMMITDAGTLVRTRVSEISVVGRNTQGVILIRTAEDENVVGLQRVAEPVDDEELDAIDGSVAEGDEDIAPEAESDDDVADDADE
Text: as §1, §2

S. Enteritidis NBRC 3313 = assay: microbe, parasite or virus in culture; assay type: cell-based, Salmonella Enteritidis; conditions: micro-broth dilution, 37°C, 16 h; for MIC: Salmonella enterica, read-out: MIC ± SD, S. Enteritidis
Method: (§3) A suspension containing approximately 5 × 10^5 CFU/mL of each Salmonella strain was transferred into 96-well plate containing serially diluted fluoroquinolones and incubated at 37°C for 16 h.

[8] = test system: S. Typhimurium NBRC 13245; assay: microbe, parasite or virus in culture; assay type: cell-based, Salmonella Typhimurium; conditions: micro-broth dilution, 37°C, 16 h; for MIC: Salmonella enterica, read-out: MIC ± SD, S. Typhimurium
Method: as §3

[9] = target: T8, Asp87Tyr mutant S. Typhimurium DNA gyrase (Salmonella typhimurium, UniProt P0A2I3+P37411, D87Y); assay: Fluoroquinolone-inhibited DNA supercoiling assay, GyrA Asp87Tyr DNA gyrase; assay type: biochemical
T8 construct: made in house; host or cells: Escherichia coli BL21(DE3)
T8 sequence (P37411 whole entry D87Y, one chain of several): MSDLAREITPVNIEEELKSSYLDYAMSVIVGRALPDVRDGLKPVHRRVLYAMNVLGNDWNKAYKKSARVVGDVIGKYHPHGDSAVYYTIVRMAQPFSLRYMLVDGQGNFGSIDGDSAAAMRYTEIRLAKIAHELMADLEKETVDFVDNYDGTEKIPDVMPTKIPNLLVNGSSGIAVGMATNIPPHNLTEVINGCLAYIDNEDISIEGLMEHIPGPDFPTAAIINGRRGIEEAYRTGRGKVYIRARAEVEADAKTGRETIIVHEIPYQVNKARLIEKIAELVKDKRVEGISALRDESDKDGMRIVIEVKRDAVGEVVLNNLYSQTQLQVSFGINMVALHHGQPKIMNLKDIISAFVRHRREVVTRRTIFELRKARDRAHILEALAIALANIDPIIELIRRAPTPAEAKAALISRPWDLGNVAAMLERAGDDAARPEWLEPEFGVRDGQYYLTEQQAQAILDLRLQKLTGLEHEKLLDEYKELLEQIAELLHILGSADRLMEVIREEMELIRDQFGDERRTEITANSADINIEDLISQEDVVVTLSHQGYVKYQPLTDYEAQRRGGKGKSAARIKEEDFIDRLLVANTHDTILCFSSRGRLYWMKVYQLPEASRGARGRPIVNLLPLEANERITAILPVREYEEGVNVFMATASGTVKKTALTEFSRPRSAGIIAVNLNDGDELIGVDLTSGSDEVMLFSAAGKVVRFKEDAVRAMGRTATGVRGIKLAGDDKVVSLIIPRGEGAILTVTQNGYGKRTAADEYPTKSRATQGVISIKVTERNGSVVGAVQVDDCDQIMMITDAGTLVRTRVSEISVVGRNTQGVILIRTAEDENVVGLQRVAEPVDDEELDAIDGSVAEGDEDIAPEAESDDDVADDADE
Text: as §1, §2

[10] = target: T9, Asp87Gly mutant S. Typhimurium DNA gyrase (Salmonella typhimurium, UniProt P0A2I3+P37411, D87G); assay: Fluoroquinolone-inhibited DNA supercoiling assay, GyrA Asp87Gly DNA gyrase; assay type: biochemical
T9 construct: made in house; host or cells: Escherichia coli BL21(DE3)
Text: as §1, §2

[11] = target: T4, WT S. Typhimurium DNA gyrase; assay: Fluoroquinolone-mediated DNA cleavage assay, WT DNA gyrase; assay type: biochemical
Text: as §1, with “CT).” for “CT). The recombinant DNA gyrase subunits were purified by column chromatography using Ni-NTA agarose resin (Thermo Fisher Scientific, Inc., Waltham, MA) and dialyzed against DNA gyrase dilution buffer [50 mM Tris-HCl, pH 7.5; 100 mM KCl, 2 mM dithiothreitol (DTT), 1 mM EDTA].”, “7. […]” for “7.”

SMILES	IC50 [1] [nM]	IC50 against double-mutant DNA gyrase relative to WT [2] [fold]	IC50 [2] [nM]	IC50 [3] [nM]	IC50 [4] [nM]	IC50 [5] [nM]	CC25s, Ser83Ile (concentration that induces 25% of maximum DNA cleavage) [6] [µg/mL]	IC50 [7] [nM]	MIC (S. Enteritidis NBRC 3313) [µg/mL]	MIC ± SD, S. Enteritidis (S. Enteritidis NBRC 3313) [µg/mL]	MIC [8] [µg/mL]	MIC ± SD, S. Typhimurium [8] [µg/mL]	IC50 [9] [nM]	IC50 [10] [nM]	CC25s, WT (concentration that induces 25% of maximum DNA cleavage) [11] [µg/mL]
Nc1nc(-n2cc(C(=O)O)c(=O)c3cc(F)c(N4CC(O)C4)c(Cl)c32)c(F)cc1F [WQ-3034]	1020	59	2680	1910	45.4	495	0.58	59	0.016 (≈ 0.0363 µM)	0.16 (≈ 0.363 µM)	0.08 (≈ 0.182 µM)	0.08 (≈ 0.182 µM)	68.1	54.5	0.16
Cc1c(N2CC(O)C2)c(F)cc2c(=O)c(C(=O)O)cn(-c3nc(N)c(F)cc3F)c12 [WQ-3154]	2080	70	4310	2750	61.9	592	–	71.4	0.08 (≈ 0.19 µM)	0.08 (≈ 0.19 µM)	0.08 (≈ 0.19 µM)	0.08 (≈ 0.19 µM)	80.9	83.3	–
Cc1c(N2CC(NC(C)C)C2)c(F)cc2c(=O)c(C(=O)O)cn(-c3nc(N)c(F)cc3F)c12 [WQ-3810]	1290	110	7910	2510	71.5	897	–	113	0.04 (≈ 0.0867 µM)	0.04 (≈ 0.0867 µM)	0.04 (≈ 0.0867 µM)	0.04 (≈ 0.0867 µM)	71.5	69.3	–
